Legend:
Type in all cases: ADME, organism-based
[1] = Plasma concentration in mouse xenografted with human SU-DHL10 cells at 10 mg/kg, po administered once daily via gavage for 21 days measured at 2 hrs post last dose
[2] = Plasma concentration in mouse xenografted with human SU-DHL10 cells at 3 mg/kg, po administered twice daily via gavage for 21 days measured at 12 hrs post last dose
[3] = Plasma concentration in mouse xenografted with human SU-DHL10 cells at 20 mg/kg, po administered twice daily via gavage for 21 days measured at 2 hrs post last dose
[4] = Plasma concentration in mouse xenografted with human SU-DHL10 cells at 3 mg/kg, po administered twice daily via gavage for 21 days measured at 2 hrs post last dose
[5] = Plasma concentration in mouse xenografted with human SU-DHL10 cells at 10 mg/kg, po administered twice daily via gavage for 21 days measured at 12 hrs post last dose
[6] = Plasma concentration in mouse xenografted with human SU-DHL10 cells at 10 mg/kg, po administered once daily via gavage for 21 days measured at 12 hrs post last dose
[7] = Plasma concentration in mouse xenografted with human SU-DHL10 cells at 1 mg/kg, po administered twice daily via gavage for 21 days measured at 12 hrs post last dose
[8] = Plasma concentration in mouse xenografted with human SU-DHL10 cells at 1 mg/kg, po administered twice daily via gavage for 21 days measured at 2 hrs post last dose
[9] = Plasma concentration in mouse xenografted with human SU-DHL10 cells at 10 mg/kg, po administered twice daily via gavage for 21 days measured at 2 hrs post last dose
[10] = Plasma concentration in mouse xenografted with human SU-DHL10 cells at 20 mg/kg, po administered twice daily via gavage for 21 days measured at 12 hrs post last dose

- concentration at 2 h [1]: 5830 nM
- concentration at 12 h [2]: 18 nM
- concentration at 2 h [3]: 4780 nM
- concentration at 2 h [4]: 2620 nM
- concentration at 12 h [5]: 32 nM
- concentration at 12 h [6]: 207 nM
- concentration at 12 h [7]: 13 nM
- concentration at 2 h [8]: 556 nM
- concentration at 2 h [9]: 4320 nM
- concentration at 12 h [10]: 32 nM
Structure (SMILES): Cc1ccc2ncccc2c1-c1cc(-c2c(C)noc2C)cc2nc(C3CC3)[nH]c12

Source: ChEMBL document CHEMBL4330118, “Structure-guided discovery of a novel, potent, and orally bioavailable 3,5-dimethylisoxazole aryl-benzimidazole BET bromodomain inhibitor” (Bioorg Med Chem, 2019)
